Measurements from patent US11980621B2, “Gonadotropin-releasing hormone antagonist dosing regimens for the treatment of endometriosis” (ObsEva S.A., priority 2017, dated 2024).

How the values were obtained:
[1] = test system: human female patients having endometriosis; assay: 12-week oral treatment of endometriosis patients grouped by initial serum AMH; serum E2 concentration; format: in vivo
Experimental: In order to investigate the effects of GnRH antagonists, such as compound (I), (II), and pharmaceutically acceptable salts thereof, such as the choline salt thereof (compound (III)), on endometriosis patients presenting with distinct initial values of serum AMH, a series of experiments was conducted in which patients were divided into multiple treatment arms and orally administered either compound (III) or a placebo. Specifically, a series of n=327 human female patients having endometriosis were divided into five groups, and received either placebo, 50 mg/day of compound (III), 75 mg/day of compound (III), 100 mg/day of compound (III), or 200 mg/day of compound (III) by oral delivery. Treatment with the placebo or compound (III) at the doses specified above occurred continuously over a period of 12 weeks. At various time points throughout these experiments, patients were evaluated for their serum E2 concentration. As described herein, an objective of endometriosis therapy utilizing a GnRH antagonist is to suppress serum E2 values to within a range of from about 20 pg/ml to about 50 pg/ml or lower. Alleviation of endometriosis symptoms correlates with a reduction of serum E2, and achieving serum E2 levels that are either within this range or below are indicators of successful endometriosis treatment. To analyze the response of patients presenting with different initial AMH serum concentrations, patients were further divided into groups based on initial AMH serum level. These groups included patients having initial AMH serum concentrations of less than 15 pM, from 15 pM to 35 pM, or greater than 35 pM prior to commencing treatment with the GnRH antagonist.

[2] = test system: various animal models of endometriosis; assay: animal models of endometriosis; format: in vivo
[3] = target: T1, human GnRH receptor (Homo sapiens, UniProt P30968); assay: affinity for human GnRH receptor; format: binding; conditions: type of constant (Ki/IC50/Kd) not stated
T1 sequence (P30968 1-328): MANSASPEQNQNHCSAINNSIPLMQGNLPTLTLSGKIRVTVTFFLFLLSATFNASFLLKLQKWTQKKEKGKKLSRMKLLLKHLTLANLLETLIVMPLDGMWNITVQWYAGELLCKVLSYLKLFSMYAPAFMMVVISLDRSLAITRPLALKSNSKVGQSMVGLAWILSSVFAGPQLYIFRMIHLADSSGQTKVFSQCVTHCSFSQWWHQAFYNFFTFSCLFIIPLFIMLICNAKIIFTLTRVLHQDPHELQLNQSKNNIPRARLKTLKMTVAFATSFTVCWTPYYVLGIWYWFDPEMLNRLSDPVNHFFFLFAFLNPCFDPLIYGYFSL

[4] = test system: Japanese women; assay: daily dosing in Japanese women (LH, E2, endometriosis-associated pain, safety); format: in vivo, human; conditions: doses between 50 and 200 mg daily

Row | Structure (SMILES) | serum E2 concentration ([1]; 50 mg/day, 12-week treatment period, initial AMH serum concentration less than 15 pM (FIG. 1)) | suppression of serum E2 concentration ([1]; higher dosages, such as 100 mg/day and 200 mg/day, patients with higher initial serum AMH levels (FIG. 3)) | serum E2 ([1]; various daily doses, oral, 12 weeks, initial serum AMH from 15 pM to 35 pM (FIG. 2)) | serum E2 ([1]; various daily doses, oral, 12 weeks, initial serum AMH greater than 35 pM (FIG. 3)) | serum β17-estradiol (E2) ([1]; various daily doses, oral, 12 weeks, initial serum AMH less than 15 pM (FIG. 1)) | E2 secretion [2] | serum LH concentration [2] | size of endometriotic lesions [2] | affinity for human GnRH receptor [3] [nM] | endometriosis-associated pain [4] | luteinizing hormone (LH) [4] | safety and tolerability profile [4] | β17-estradiol (E2) [4]
1 | COc1cc(F)c(-n2c(=O)[nH]c3csc(C(=O)O)c3c2=O)cc1OCc1c(OC)ccc(F)c1F [compound (III), choline 3-[2-fluoro-5-(2,3-difluoro-6-methoxybenzyloxy)4-methoxyphenyl]-2,4-dioxo-1,2,3,4-tetrahydrothieno[3,4d]pyrimidine-5-carboxylate] | achieve a reduction in serum E2 concentration | generally required for suppression of serum E2 concentration | dose-dependent suppression | dose-dependent suppression | dose-dependent suppression |  |  |  |  |  |  |  | 
2 | COc1cc(F)c(-n2c(=O)[nH]c3csc(C(=O)O)c3c2=O)cc1OCc1c(OC)ccc(F)c1F [Compound (II), 3-[2-fluoro-5-(2,3-difluoro-6-methoxybenzyloxy)4-methoxyphenyl]-2,4-dioxo-1,2,3,4-tetrahydrothieno[3,4d]pyrimidine-5-carboxylic acid] |  |  |  |  |  | significantly suppressing | significantly suppressing | significantly suppressing | 27.4 | significantly reduce | suppress | good safety and tolerability profile | suppress
